In the assay the target is T1, Tyrosine-protein kinase Tec (Homo sapiens, UniProt P42680).
T1 sequence (P42680 whole entry): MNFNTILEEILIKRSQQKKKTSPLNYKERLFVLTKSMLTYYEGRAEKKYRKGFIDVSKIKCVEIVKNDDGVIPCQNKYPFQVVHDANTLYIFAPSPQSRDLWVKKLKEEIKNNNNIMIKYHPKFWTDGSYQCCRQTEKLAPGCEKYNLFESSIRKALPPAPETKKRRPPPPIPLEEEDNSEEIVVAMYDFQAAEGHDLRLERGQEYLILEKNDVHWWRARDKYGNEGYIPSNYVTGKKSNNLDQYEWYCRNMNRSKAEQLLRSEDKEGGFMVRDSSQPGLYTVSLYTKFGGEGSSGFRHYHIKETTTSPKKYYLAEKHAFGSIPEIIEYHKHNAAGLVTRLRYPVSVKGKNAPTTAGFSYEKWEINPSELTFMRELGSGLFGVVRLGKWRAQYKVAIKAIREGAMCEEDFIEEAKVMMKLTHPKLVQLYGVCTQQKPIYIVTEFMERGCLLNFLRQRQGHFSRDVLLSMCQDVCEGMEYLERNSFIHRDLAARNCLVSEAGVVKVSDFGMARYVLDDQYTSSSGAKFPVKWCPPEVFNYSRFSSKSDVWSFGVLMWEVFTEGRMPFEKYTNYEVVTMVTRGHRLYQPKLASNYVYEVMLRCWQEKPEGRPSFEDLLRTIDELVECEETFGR
Kind of assay: Binding affinity to Tec SH3 domain.

For orientation: Kd means the concentration at which binding is half-saturated. Higher therefore signals lower affinity. With `c1c[nH]c(CNc2ccc3ccccc3n2)c1`, the Kd was found to be 285 µM.
Under `Fc1cccc(CNc2ccc3ccccc3n2)c1` stands 177 µM; under `c1ccc(CNc2ccc3ccccc3n2)cc1`, 193 µM; under `Oc1ccc(CNc2ccc3ccccc3n2)cc1`, 292 µM.
The compound `Fc1ccccc1CNc1ccc2ccccc2n1` registered a Kd of 208 µM.
For `Oc1cccc(CNc2ccc3ccccc3n2)c1`, the affinity, expressed as Kd, was 234 µM.

For the origin of these results see ChEMBL document CHEMBL1147774, “Synthesis of N-benzylated-2-aminoquinolines as ligands for the Tec SH3 domain” (Bioorg Med Chem Lett, 2006).
